From US6043386A, “Non-calcemic, antiproliferative, transcriptionally active 24-fluorinated hybrid analogs of 1α,-25-dihydroxy vitamin D3” (John Hopkins University, priority 1999, dated 2000)

What was measured:
[1] = test system: murine keratinocytes; assay: in vitro antiproliferative activity in murine keratinocytes (FIG. 1); format: cell-based; settings: for antiproliferative activities: 1α,3β vs. 1β,3α diastereomers; for antiproliferative activity relative to 1,25D3: even at physiologically relevant 7 nM concentrations
Description: Each of these new hybrid analogs (Structures 3 and 4 of Scheme I) is evaluated initially for in vitro antiproliferative activity in murine keratinocytes, using the protocol described in Posner et al., J. Med. Chem. 1992, 35, pp. 3280-3287. The procedure utilized is described as follows:
(§1) Murine B16 malignant melanoma cells are grown and propagated in RPMI medium supplemented with 10% fetal bovine serum, L-glutamine, penicillin, and streptomycin and incubated at 37° C. in 5% CO2. For proliferation studies, cells are washed with PBS, trypsinized, and suspended in 8 ml of supplemented RPMI medium. The cell density is then determined using a hemacytometer and cells are resuspended in RPMI at 10,000 cells/cm^3. One ml of cell suspension (10,000 cells) is added to each well of a Falcon 24 Well Flat Bottom Tissue Culture Plate (Becton-Dickinson, Lincoln Park, N.J.). Plates are incubated for 24 hours to allow for cell attachment. The medium is then removed and replaced with fresh RPMI medium containing either 0.4% solvent (isopropanol) or vitamin D analog at concentrations ranging from 1-1000 nM in triplicate. When control wells near confluence, cells are washed with PBS, trypsinized, and suspended in 10 ml of Isoton II Coulter Balanced EIectrolyte Solution in FISHERbrand Dilu-Vial cuvettes. Cell number is then determined for each well as an average of two readings on a ZM Coulter Counter. Results are expressed as the average cell number for each vitamin D analog treatment group divided by the intital cell number (N/N0). The average standard deviation of the N/N0 cell number measurements was 0.21 in FIG. 1 and 2.1 in FIG. 2.

[2] = test system: vitamin D receptor; assay: in vitro vitamin D receptor-mediated transcriptional activity in ROS 17/2.8 cells (growth hormone reporter); format: cell-based; settings: 48 h, rat osteosarcoma ROS 17/2.8 cells, vitamin D responsive element of human osteocalcin gene, 2 days, read-out: ED50 (transcriptional potency)
Description: The procedure utilized is described as follows:
Transfections and transcriptional activity of the analogs.
Rat osteosarcoma ROS 17/2.8 cells are maintained in 50% Dulbecco's modified Eagle medium (DMEM) and 50% F12 nutrient mixture supplemented with 10% fetal bovine serum. Forty eight hours before transfections, the cells are plated in 35-mm dishes at a density of 10^5 /dish in DMEM and 10% fetal bovine serum. ROS 17/2.8 cells are transfected with 2 μg of plasmid containing the vitamin D responsive element from the human osteocalcin gene ([…]) attached to the thymidine kinase promoter/growth hormone fusion gene. […] Medium samples for measurements of reporter gene expression (growth hormone) are collected 2 days after transfection. Growth hormone is measured by a radioimmunoassay as described by the manufacturer (Nichols Institute, San Juan Capistrano, Calif.).

[3] = body weight gain in rats treated daily for one week; format: in vivo, rat; settings: 1 microgram per kg per os, seven consecutive days
Description: (§2) Male F344 rats (150 g) are housed individually in glass metabolism cages and received food and water ad libitum. After several days acclimation, rats receive 1 microgram per kg body weight of test compound per os for seven consecutive days in 150 microliters of propylene glycol/0.05M Na2 HPO4 (80:20). Urine samples, which are collected on ice, were centrifuged at 650×g for 10 min, adjusted to pH 6.0 as necessary, and assayed for calcium content spectrophotometrically at 575 nm using reagents and standards from Sigma Calcium Kit #587.

[4] = test system: Male F344 rats; assay: Determination of urinary calcium levels / hypercalcemic effects in vivo (FIG. 3); parameters: species or system rat; settings: 1 microgram per kg per os, seven consecutive days
Description: Because of their high antiproliferative and transcriptional activities in vitro, fluorinated hybrid analogs, Structures 3b and 4b, are evaluated for hypercalcemic effects in vivo. The procedure utilized is described as follows:
Determination of urinary calcium levels.
as §2

[5] = test system: Murine B16 malignant melanoma cells; assay: Antiproliferative assays using malignant melanoma cells (FIG. 2); format: cell-based; settings: even at 1 nM concentration
Description: Antiproliferative assays using malignant melanoma cells
as §1, with “The average standard deviation of the N/N0 cell number measurements was 0.21 in FIG. 1 and 2.1 in FIG. 2.” left out

calcium excretion into the urine [4] | Compound | antiproliferative activities [1] | EC50 [2] [nM] | suppression of body weight gain [3] | antiproliferative activity relative to 1,25D3 [1] | antiproliferative potency relative to 1,25D3 [5]
 | C=C1/C(=C\C=C2/CCC[C@]3(C)C([C@H](C)CCC(F)(F)C(C)(C)O)=CC[C@@H]23)C[C@@H](O)C[C@@H]1CO [Structure 3a] | much less potent |  |  |  | 
no calcium elevation above control | C=C1/C(=C\C=C2/CCC[C@]3(C)C([C@H](C)CCC(F)(F)C(C)(C)O)=CC[C@@H]23)C[C@H](O)C[C@H]1CO [Structure 3b] | significant antiproliferative activities | 0.2 | not observed | at least equal to that of 1,25D3 | more potent antiproliferative agents than 1,25D3
 | C=C1/C(=C\C=C2/CCC[C@]3(C)C([C@H](C)CCC(F)(F)C(O)(CC)CC)=CC[C@@H]23)C[C@@H](O)C[C@@H]1CO [Structure 4a] | much less potent |  |  |  | 
no calcium elevation above control | C=C1/C(=C\C=C2/CCC[C@]3(C)C([C@H](C)CCC(F)(F)C(O)(CC)CC)=CC[C@@H]23)C[C@H](O)C[C@H]1CO [Structure 4b] | significant antiproliferative activities | 0.05 | not observed | at least equal to that of 1,25D3 | more potent antiproliferative agents than 1,25D3

Compound | calcium excretion into the urine [4] | antiproliferative activities [1] | EC50 [2] [nM] | suppression of body weight gain [3] | antiproliferative activity relative to 1,25D3 [1] | antiproliferative potency relative to 1,25D3 [5]
C=C1/C(=C\C=C2/CCC[C@]3(C)[C@@H]([C@H](C)CCCC(C)(C)O)CC[C@@H]23)C[C@@H](O)C[C@@H]1O [calcitriol, 1α,25-dihydroxy vitamin D3, reference compound] | marked excretion of calcium into the urine |  |  | suppression of body weight gain |  | 
